How the values were obtained:
[1] = tested on: inflammatory cytokines (TNF, IL-6, IL-1); test: LPS mouse sepsis model: Q-PCR of inflammatory factor mRNA in lung, liver and kidney; assay type: in vivo, C57BL/6 mice; details: sepsis mice
Source text: Gently pipette to mix the above reagents. The reaction conditions are as follows:
Detailed information is as follows:

MDSCs = test: Inhibition of MDSC chemotaxis (Transwell, Hepa1-6 tumor-conditioned medium); assay type: cell-based, mice; details: 12 h treatment, 24 h Transwell
Description: Hepa1-6 mouse hepatocellular carcinoma cells were uniformly seeded into 6-well plates. After cells reached confluence, supernatant was aspirated, and 1-1.5 mL fresh medium was added to each well. Following 24 h culture, supernatant was collected, centrifuged at 1600 rpm for 5 min, aspirated, and filtered through a 0.22 µm membrane to obtain tumor-conditioned medium for subsequent use. Euthanize mice by cervical dislocation and immerse in 75% ethanol solution for 5 min. Under sterile conditions, remove the tibia, cut both ends of the bone, and aspirate the bone marrow into a 1 mL syringe. Repeat flushing into a 15 mL centrifuge tube. Centrifuge at 1600 rpm for 5 min to collect bone marrow cells. Wash twice with 1×PBS. Resuspend cells in complete RPMI 1640 medium containing cytokines GM-CSF (10 ng/mL) and IL-4 (10 ng/mL) to stimulate differentiation into MDSCs. Count cells, adjust density to 1×10^6 cells/mL, and uniformly seed into 24-well plates at 300 µL per well. […] Centrifuge at 1600 rpm for 5 min, remove supernatant, resuspend cells in 300 µL fresh medium, and place into Transwell chambers. Add 600 µL normal medium (control group) or tumor-conditioned medium (model group) to the lower chamber. Co-culture for 24 h.

[2] = tested on: inflammatory cytokines (IL-1β, IL-6); test: LPS acute lung injury model in mice: ELISA of inflammatory cytokines; assay type: in vivo, C57BL/6 mice
Source text: The abdomen was opened, and the lungs were removed. They were rinsed twice with pre-chilled PBS. […] P values less than 0.05 were considered statistically significant.

CCR2 mRNA = CCR2 mRNA level in MDSCs (PCR); assay type: cell-based, mice; details: CCR2 mRNA levels in MDSCs, 2 h
Description: Mice were euthanized by cervical dislocation and immersed in 75% ethanol solution for 5 min. Under sterile conditions, the tibia was removed, both ends of the bone were cut, and bone marrow was repeatedly flushed into a 15 mL centrifuge tube using a 1 mL syringe filled with culture medium. Centrifuge at 1600 rpm for 5 min to collect bone marrow cells. Wash twice with 1×PBS, then resuspend in RPMI 1640 complete medium containing GM-CSF (10 ng/mL) + IL-4 (10 ng/mL) and transfer to a cell culture dish to stimulate differentiation of bone marrow cells into MDSCs. Count cells and adjust density to 1 × 10^6 cells/mL in complete medium. Seed cells uniformly into 6-well plates at 2 mL per well. […] After incubation, collect cells into centrifuge tubes, centrifuge at 1600 rpm for 5 min, wash once with 1×PBS, and add 500 µL RNA extraction reagent to each tube. After centrifugation to obtain the pellet, add 20 µL DEPC-treated water to each tube to dissolve the pellet. Determine RNA concentration and reverse transcribe to cDNA. Add the cDNA, primers, and reverse transcriptase to a 96-well plate. Centrifuge at 4000 rpm for 5 min, then place in a PCR instrument for detection.

[3] = tested on: renal injury markers (Ngal, Havcr1), inflammatory cytokines (TNF, IL-6, IL-1), fibrosis-related factors (α-Sma, Col1a1, Tgfb1); test: Folic acid acute kidney injury model in mice: Q-PCR of kidney tissue; assay type: in vivo, C57BL/6 mice; design: Tnf / Il1 / Il6: unit not given here; details: kidney mRNA, acute model (FA)
[4] = Conversion rate of salt-form prodrugs to parent compound in HEPES buffer solution; assay type: physicochemical; details: conversion to Compound 1, HEPES buffer pH 7.4, 37 °C
Outline: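 Salt-form prodrug dissolved in water was mixed 1:1 with HEPES buffer pH 7.4 (or mouse serum) and incubated at 37°C. Aliquots were quenched with methanol and centrifuged, and supernatants taken at 1, 2, 4, 8 and 12 h were analysed by HPLC. Conversion was followed by peak areas.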

[5] = Safety evaluation of Compound 20: 30-day oral gavage in mice (body weight, activity status, survival rate)
[6] = kidney mRNA (relative, Gapdh), oral gavage 0.1 mg/kg
[7] = kidney mRNA (relative, Gapdh), oral gavage 1 mg/kg
[8] = liver mRNA (relative, Gapdh), oral gavage 0.1 mg/kg
[9] = liver mRNA (relative, Gapdh), oral gavage 1 mg/kg
[10] = lung mRNA (relative, Gapdh), oral gavage 0.1 mg/kg
[11] = lung mRNA (relative, Gapdh), oral gavage 1 mg/kg
[12] = oral gavage 0.1 mg/kg for three days
[13] = oral gavage 1 mg/kg for three days

With `C=C1C(=O)O[C@@H]2[C@@H]3[C@]4(CC[C@@]3(C)O)C[C@]4(C)CC[C@@H]12` [compound 1] as the compound, how does the Il1 [1, 6] read?
Its Il1 is 7.01±0.33.

And the Il6 [1, 6]?
Its Il6 is 7.55±2.08.

And the Tnf [1, 6]?
The Tnf was 7.17±1.22.

What about the Il1 [1, 7] of the same compound?
Its Il1 is 3.05±0.58.

And the Il6 [1, 7]?
Its Il6 is 3.11±0.29.

And the Tnf [1, 7]?
Its Tnf is 6.59±0.18.

And the Il1 [1, 8]?
The Il1 was 11.32±2.66.

What about the Il6 [1, 8] of the same compound?
Its Il6 is 8.50±3.02.

And the Tnf [1, 8]?
Its Tnf is 8.68 ± 2.12.

What about the Il1 [1, 9] of the same compound?
Its Il1 is 4.84±0.60.

And the Il6 [1, 9]?
The Il6 was 5.10±0.82.

What about the Tnf [1, 9] of the same compound?
Its Tnf is 7.01±0.92.

And the Il1 [1, 10]?
The Il1 was 15.29±0.88.

What about the Il6 [1, 10] of the same compound?
The Il6 was 19.17±0.51.

And the Tnf [1, 10]?
Its Tnf is 8.58 ± 0.85.

What about the Il1 [1, 11] of the same compound?
The Il1 was 7.89±1.44.

And the Il6 [1, 11]?
Its Il6 is 11.67±1.84.

And the Tnf [1, 11]?
Its Tnf is 7.99±1.36.

What about the “Suppression Rate (%)” value (MDSCs; 1 µM) of the same compound?
The value was 42.3%.

And the “Suppression Rate (%)” value (MDSCs; 10 µM)?
Its value is 83.3%.

And the IL-1β [2, 12]?
Its IL-1β is 1824.88 ± 32.73 pg/mL.

And the IL-6 [2, 12]?
Its IL-6 is 2760.57 ± 288.02 pg/mL.

And the IL-1β [2, 13]?
Its IL-1β is 945.66 ± 36.71 pg/mL.

And the IL-6 [2, 13]?
The IL-6 was 1314.91 ± 231.08 pg/mL.

What about the “CCR2 mRNA suppression rate in MDSCs (%)” value (CCR2 mRNA; 1 µM) of the same compound?
The value was 35.2%.

And the “CCR2 mRNA suppression rate in MDSCs (%)” value (CCR2 mRNA; 10 µM)?
Its value is 76.5%.

And the Col1a1 ([3]; oral 0.1 mg/kg)?
Its Col1a1 is 1.64±0.16.

And the Havcr1 ([3]; oral 0.1 mg/kg)?
The Havcr1 was 175.10±17.63.

What about the Il1 ([3]; oral 0.1 mg/kg) of the same compound?
The Il1 was 2.62±0.56.

And the Il6 ([3]; oral 0.1 mg/kg)?
Its Il6 is 8.02±0.77.

What about the Ngal ([3]; oral 0.1 mg/kg) of the same compound?
Its Ngal is 30.52±5.05.

What about the Tgfb1 ([3]; oral 0.1 mg/kg) of the same compound?
Its Tgfb1 is 1.96±0.17.

And the Tnf ([3]; oral 0.1 mg/kg)?
Its Tnf is 2.89±0.59.

What about the α-Sma ([3]; oral 0.1 mg/kg) of the same compound?
Its α-Sma is 1.82±0.19.

And the Col1a1 ([3]; oral 1 mg/kg)?
The Col1a1 was 1.32±0.15.

What about the Havcr1 ([3]; oral 1 mg/kg) of the same compound?
Its Havcr1 is 99.99±7.98.

What about the Il1 ([3]; oral 1 mg/kg) of the same compound?
Its Il1 is 1.72±0.45.

What about the Il6 ([3]; oral 1 mg/kg) of the same compound?
Its Il6 is 3.98±0.59.

And the Ngal ([3]; oral 1 mg/kg)?
The Ngal was 20.17±2.21.

And the Tgfb1 ([3]; oral 1 mg/kg)?
Its Tgfb1 is 1.36±0.10.

What about the Tnf ([3]; oral 1 mg/kg) of the same compound?
The Tnf was 2.76±0.71.

What about the α-Sma ([3]; oral 1 mg/kg) of the same compound?
The α-Sma was 1.42±0.11.

Which results are given for `CN(C)C[C@@H]1C(=O)O[C@H]2[C@H]1CC[C@@]1(C)C[C@]13CC[C@@](C)(O)[C@H]23` [compound 20]?
Release rate ([4]; 1 h): 6.2%; Release rate ([4]; 2 h): 13.8%; Release rate ([4]; 4 h): 21.7%; Release rate ([4]; 8 h): 44.3%; Release rate ([4]; 12 h): 59.1%; effect on mouse survival rate ([5]; 500 mg/kg and 1000 mg/kg, 30 days): no significant effect on the survival rate; time to recover to normal activity after administration ([5]; 500, 1000 mg/kg oral gavage): 1 to 2 h; effect on mouse activity status ([5]; 500, 1000 mg/kg oral gavage once daily, 30 days): relatively reduced activity and lethargy after each administration; effect on mouse body weight ([5]; 500, 1000 mg/kg oral gavage once daily, 30 days, female and male mice): no significant effect on the body weight; Survival rate ([5]; female C57BL/6 mice, 500 mg/kg oral gavage once daily for 30 days): 100%; Survival rate ([5]; female C57BL/6 mice, 1000 mg/kg oral gavage once daily for 30 days): 100%; Survival rate ([5]; male C57BL/6 mice, 500 mg/kg oral gavage once daily for 30 days): 100%; Survival rate ([5]; male C57BL/6 mice, 1000 mg/kg oral gavage once daily for 30 days): 100.00%

— patent EP4813381A1, “PHARMACEUTICAL USE OF GUAIANE SESQUITERPENE DERIVATIVE” (Nanjing University Of Chinese Medicine, priority 2023, dated 2025)
